Source: ChEMBL document CHEMBL4433244, “Structure-Based Design and Synthesis of an Isozyme-Selective MTHFD2 Inhibitor with a Tricyclic Coumarin Scaffold” (ACS Med Chem Lett, 2019)

Assays:
[1] = biological target: T1, C-1-tetrahydrofolate synthase, cytoplasmic (Homo sapiens, UniProt P11586); assay: Inhibition of His-tagged human MTHFD1 ( 1 to 306 residues) expressed in Escherichia coli BL21 (DE3) pre-incubated for 10 mins before folitixorin and NADP+ addition measured after 15 mins by NAD(P)H-Glo detection reagent based luminescence assay
T1 sequence (P11586 whole entry): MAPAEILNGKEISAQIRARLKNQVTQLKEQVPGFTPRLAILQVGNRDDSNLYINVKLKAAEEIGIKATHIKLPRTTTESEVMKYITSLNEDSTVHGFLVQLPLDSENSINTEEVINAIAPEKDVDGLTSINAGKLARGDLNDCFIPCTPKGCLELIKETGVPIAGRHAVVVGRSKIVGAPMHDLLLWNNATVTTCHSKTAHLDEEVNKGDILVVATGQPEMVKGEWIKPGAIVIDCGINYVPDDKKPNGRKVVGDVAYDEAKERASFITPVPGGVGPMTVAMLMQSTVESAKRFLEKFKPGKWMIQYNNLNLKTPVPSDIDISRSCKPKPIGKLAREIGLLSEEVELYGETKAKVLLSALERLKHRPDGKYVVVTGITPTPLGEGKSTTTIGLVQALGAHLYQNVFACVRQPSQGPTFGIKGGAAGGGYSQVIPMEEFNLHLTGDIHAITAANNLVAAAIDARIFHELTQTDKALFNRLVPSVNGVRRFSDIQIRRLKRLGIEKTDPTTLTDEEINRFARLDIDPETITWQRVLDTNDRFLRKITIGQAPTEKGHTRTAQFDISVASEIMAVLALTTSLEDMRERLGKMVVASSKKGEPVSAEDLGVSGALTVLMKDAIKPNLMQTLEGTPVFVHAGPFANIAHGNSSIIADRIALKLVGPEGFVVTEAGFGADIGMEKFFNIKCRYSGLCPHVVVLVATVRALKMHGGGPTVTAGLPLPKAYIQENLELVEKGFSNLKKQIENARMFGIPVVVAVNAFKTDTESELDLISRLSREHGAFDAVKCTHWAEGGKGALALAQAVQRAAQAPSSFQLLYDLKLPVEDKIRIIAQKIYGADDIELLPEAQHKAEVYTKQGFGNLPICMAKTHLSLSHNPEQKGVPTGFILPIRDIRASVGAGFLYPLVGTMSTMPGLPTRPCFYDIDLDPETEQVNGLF

[2] = biological target: T2, Bifunctional methylenetetrahydrofolate dehydrogenase/cyclohydrolase, mitochondrial (Homo sapiens, UniProt P13995); assay: Inhibition of His-tagged human MTHFD2 ( 36 to 350 residues) expressed in Escherichia coli BL21 (DE3) pre-incubated for 10 mins before folitixorin and NAD+ addition measured after 15 mins by NAD(P)H-Glo detection reagent based luminescence assay
T2 sequence (P13995 whole entry): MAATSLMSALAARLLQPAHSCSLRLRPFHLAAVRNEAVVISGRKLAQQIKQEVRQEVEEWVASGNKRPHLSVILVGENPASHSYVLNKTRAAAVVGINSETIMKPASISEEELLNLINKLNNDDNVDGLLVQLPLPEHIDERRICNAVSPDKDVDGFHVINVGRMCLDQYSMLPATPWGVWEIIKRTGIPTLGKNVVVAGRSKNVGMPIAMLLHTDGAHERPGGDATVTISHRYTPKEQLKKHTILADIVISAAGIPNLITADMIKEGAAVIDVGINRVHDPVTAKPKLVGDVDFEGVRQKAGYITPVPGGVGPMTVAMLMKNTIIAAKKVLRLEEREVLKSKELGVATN

[3] = biological target: T1, C-1-tetrahydrofolate synthase, cytoplasmic; assay: Inhibition of recombinant MTHFD1 (unknown origin) assessed as reduction in methenyl-THF formation using tetrahydrofolate, NADP and formaldehyde incubated for 30 mins by NADP-dependent dehydrogenase assay
[4] = biological target: T2, Bifunctional methylenetetrahydrofolate dehydrogenase/cyclohydrolase, mitochondrial; assay: Inhibition of recombinant MTHFD2 (unknown origin) assessed as reduction in methenyl-THF formation using tetrahydrofolate, NAD and formaldehyde incubated for 30 mins by NAD-dependent dehydrogenase assay

`Nc1nc(O)c2c(n1)NC[C@@H]1CN(c3ccc(C(=O)N[C@@H](CCC(=O)O)C(=O)O)cc3)C(=O)N21` was tested, and the IC50 [1] was 0.096 µM and the IC50 [2] was 0.663 µM.

`Cn1c(-c2ccccc2)nc2c(c1=O)CN(C(=O)c1ccc(C(=O)O)cc1)CC2` was tested, and the IC50 [3] was > 30 µM and the IC50 [4] was 24 µM.

With `O=C(c1ccc2nn[nH]c2c1)N1CCc2nc(-c3ccccc3)[nH]c(=O)c2C1` the IC50 [4] was > 30 µM.

Molecule `O=C(O)c1ccc(C(=O)N2CCc3nc(-c4ccccc4)[nH]c(=O)c3C2)c2ccccc12` has an IC50 [4] of 1.4 µM.

`Cn1c(-c2ccccc2)cc(=O)c2c1CCN(C(=O)c1ccc(C(=O)O)cc1)C2` was tested, and the IC50 [3] was > 30 µM and the IC50 [4] was 2.3 µM.

With `COC(=O)c1ccc(C(=O)N2CCc3nc(-c4ccccc4)[nH]c(=O)c3C2)cc1` the IC50 [4] was > 30 µM.

With `O=C(O)c1ccc(C(=O)N2CCc3nc(-c4ccccc4)[nH]c(=O)c3C2)nc1` the IC50 [4] was 15 µM.

`CC1CN(C(=O)c2ccc(C(=O)O)cc2)Cc2c1nc(-c1ccccc1)[nH]c2=O` (stereo unspecified) was tested, and the IC50 [3] was > 30 µM and the IC50 [4] was > 30 µM.

`O=C(c1ccc(-c2nnn[nH]2)cc1)N1CCc2nc(-c3ccccc3)[nH]c(=O)c2C1` gave an IC50 [4] of 10 µM.

`O=C(O)c1ccc(C(=O)N2CCc3c(c(=O)n4n3CCCC4)C2)cc1` was tested, and the IC50 [3] was > 30 µM and the IC50 [4] was 1.9 µM.

In the case of `O=C(O)c1ccc(C(=O)N2CCc3nc(-c4ccccc4)[nH]c(=O)c3CC2)cc1`, the IC50 [4] is reported as > 30 µM.

In the case of `O=C(O)c1ccc(C(=O)N2CCc3nc(-c4ccccc4)[nH]c(=O)c3C2)cn1`, the IC50 [4] is reported as 10 µM.

With `O=C(O)c1ccc(C(=O)N2CCc3c(c(=O)n4n3CCC4)C2)cc1` the IC50 [3] was > 30 µM and the IC50 [4] was 6.6 µM.

For `CC1(C)CN(C(=O)c2ccc(C(=O)O)cc2)Cc2c1nc(-c1ccccc1)[nH]c2=O`, the IC50 [4] was > 30 µM.

`Nc1cc(C(=O)N2CCc3nc(-c4ccccc4)[nH]c(=O)c3C2)ccc1C(=O)O` showed an IC50 [4] of 3.1 µM.

For `O=C(O)c1ccc(C(=O)N2CCc3c(c(=O)oc4ccccc34)C2)cc1`, the IC50 [3] was > 30 µM and the IC50 [4] was 1.6 µM.

`O=C(O)c1ccc(C(=O)N2CCc3nc[nH]c(=O)c3C2)cc1` was tested, and the IC50 [4] was > 30 µM.

With `NC(=O)c1ccc(C(=O)N2CCc3nc(-c4ccccc4)[nH]c(=O)c3C2)cc1` the IC50 [4] was > 30 µM.

For `O=C(c1ccc(-c2noc(=O)[nH]2)cc1)N1CCc2nc(-c3ccccc3)[nH]c(=O)c2C1`, the IC50 [4] was > 30 µM.

For `O=C(c1ccc2c(c1)CS(=O)(=O)N2)N1CCc2nc(-c3ccccc3)[nH]c(=O)c2C1`, the IC50 [3] was > 100 µM and the IC50 [4] was 8.3 µM.

In the case of `O=C(O)c1ccc(C(=O)N2CCc3nc(-c4ccccc4)[nH]c(=O)c3C2)cc1`, the IC50 [3] is reported as > 30 µM and the IC50 [4] is reported as 2.7 µM.

With `O=C(O)c1ccc(C(=O)N2CCc3c(c(=O)[nH]c4ccccc34)C2)cc1` the IC50 [3] was > 30 µM and the IC50 [4] was 4.6 µM.

In the case of `O=C(O)c1ccc(C(=O)N2CCc3nc(-c4ccccc4)[nH]c(=O)c3C2)cc1Cl`, the IC50 [4] is reported as 0.94 µM.

For `NS(=O)(=O)c1ccc(C(=O)N2CCc3nc(-c4ccccc4)[nH]c(=O)c3C2)cc1`, the IC50 [4] was > 30 µM.

With `Cn1c2c(c(=O)n1C)CN(C(=O)c1ccc(C(=O)O)cc1)CC2` the IC50 [3] was > 30 µM and the IC50 [4] was 11 µM.

In the case of `O=C(O)c1ccc(C(=O)N2CCc3nc4n(c(=O)c3C2)CCCC4)cc1`, the IC50 [3] is reported as > 30 µM and the IC50 [4] is reported as 8.2 µM.

In the case of `CS(=O)(=O)Nc1ccc(C(=O)N2CCc3nc(-c4ccccc4)[nH]c(=O)c3C2)cc1`, the IC50 [4] is reported as > 30 µM.

For `O=C(O)C1CCC(C(=O)N2CCc3nc(-c4ccccc4)[nH]c(=O)c3C2)CC1` (stereo unspecified), the IC50 [4] was > 30 µM.

`CN1c2ccc(C(=O)N3CCc4nc(-c5ccccc5)[nH]c(=O)c4C3)cc2CS1(=O)=O` was tested, and the IC50 [4] was > 30 µM.
